Reference: ChEMBL document CHEMBL4800731, “Data for DCP probe JNJ-65355394” (2021)

Tests used:
[1] = biological target: Sodium-dependent serotonin transporter (Homo sapiens, UniProt P31645); assay: h5HTT Cerep panel
Rattus norvegicus = species on record: Rattus norvegicus; assay: rKCH Cerep panel
[2] = biological target: T1, 5-hydroxytryptamine receptor 1A (Homo sapiens) (UniProt P08908); assay: h5HT1A Cerep panel
T1 sequence (whole entry): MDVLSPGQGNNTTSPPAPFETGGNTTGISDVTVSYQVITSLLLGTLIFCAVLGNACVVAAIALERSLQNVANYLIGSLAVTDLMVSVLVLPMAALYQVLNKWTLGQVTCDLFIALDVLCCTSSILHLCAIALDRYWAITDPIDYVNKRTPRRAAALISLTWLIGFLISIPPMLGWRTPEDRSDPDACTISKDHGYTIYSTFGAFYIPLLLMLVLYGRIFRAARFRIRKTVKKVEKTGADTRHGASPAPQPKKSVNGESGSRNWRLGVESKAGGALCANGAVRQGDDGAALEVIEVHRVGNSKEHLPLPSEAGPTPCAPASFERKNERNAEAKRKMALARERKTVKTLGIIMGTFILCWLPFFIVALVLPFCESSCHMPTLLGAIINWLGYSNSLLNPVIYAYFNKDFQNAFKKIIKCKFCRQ

[3] = biological target: Adenosine receptor A1 (Homo sapiens) (UniProt P30542); assay: hA1 Cerep panel
Adenosine receptor A1 (Homo sapiens), sequence (P30542 whole entry): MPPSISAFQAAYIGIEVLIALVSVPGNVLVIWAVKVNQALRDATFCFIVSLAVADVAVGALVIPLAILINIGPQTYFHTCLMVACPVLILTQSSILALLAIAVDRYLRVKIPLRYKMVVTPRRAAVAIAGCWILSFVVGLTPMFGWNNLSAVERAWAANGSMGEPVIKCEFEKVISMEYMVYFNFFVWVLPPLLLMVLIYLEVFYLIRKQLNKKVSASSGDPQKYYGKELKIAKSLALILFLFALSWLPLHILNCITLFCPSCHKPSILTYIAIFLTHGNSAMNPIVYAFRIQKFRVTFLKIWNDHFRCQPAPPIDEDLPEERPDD

[4] = biological target: Neuropeptide Y receptor type 2 (Homo sapiens) (UniProt P49146); assay: hNPY2 Cerep panel
Neuropeptide Y receptor type 2 (Homo sapiens), sequence (P49146 whole entry): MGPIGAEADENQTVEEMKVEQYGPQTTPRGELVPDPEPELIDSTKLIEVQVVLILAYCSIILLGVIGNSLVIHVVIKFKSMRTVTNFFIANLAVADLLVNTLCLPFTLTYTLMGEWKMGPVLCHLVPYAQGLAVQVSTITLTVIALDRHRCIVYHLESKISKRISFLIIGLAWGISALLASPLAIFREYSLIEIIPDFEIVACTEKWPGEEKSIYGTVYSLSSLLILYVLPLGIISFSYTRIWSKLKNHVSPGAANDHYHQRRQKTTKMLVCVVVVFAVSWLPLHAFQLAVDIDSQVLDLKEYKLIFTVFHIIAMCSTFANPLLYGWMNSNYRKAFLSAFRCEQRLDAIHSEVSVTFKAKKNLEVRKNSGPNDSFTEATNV

[5] = biological target: Endothelin-1 receptor (Homo sapiens) (UniProt P25101); assay: hETA Cerep panel
Endothelin-1 receptor (Homo sapiens), sequence (P25101 whole entry): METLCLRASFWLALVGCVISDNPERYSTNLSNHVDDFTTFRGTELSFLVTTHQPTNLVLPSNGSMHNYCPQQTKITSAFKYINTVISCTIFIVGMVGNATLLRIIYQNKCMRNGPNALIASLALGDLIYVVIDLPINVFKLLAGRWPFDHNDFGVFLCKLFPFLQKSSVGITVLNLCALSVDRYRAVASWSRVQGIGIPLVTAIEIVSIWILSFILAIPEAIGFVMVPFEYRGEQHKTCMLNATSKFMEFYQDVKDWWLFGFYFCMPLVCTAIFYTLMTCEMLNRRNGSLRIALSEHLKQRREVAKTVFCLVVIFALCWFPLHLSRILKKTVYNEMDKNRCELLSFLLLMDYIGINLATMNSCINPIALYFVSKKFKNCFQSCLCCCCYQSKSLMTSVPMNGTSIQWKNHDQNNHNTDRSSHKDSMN

[6] = biological target: Neuropeptide Y receptor type 1 (Homo sapiens) (UniProt P25929); assay: hNPY1 Cerep panel
Neuropeptide Y receptor type 1 (Homo sapiens), sequence (P25929 whole entry): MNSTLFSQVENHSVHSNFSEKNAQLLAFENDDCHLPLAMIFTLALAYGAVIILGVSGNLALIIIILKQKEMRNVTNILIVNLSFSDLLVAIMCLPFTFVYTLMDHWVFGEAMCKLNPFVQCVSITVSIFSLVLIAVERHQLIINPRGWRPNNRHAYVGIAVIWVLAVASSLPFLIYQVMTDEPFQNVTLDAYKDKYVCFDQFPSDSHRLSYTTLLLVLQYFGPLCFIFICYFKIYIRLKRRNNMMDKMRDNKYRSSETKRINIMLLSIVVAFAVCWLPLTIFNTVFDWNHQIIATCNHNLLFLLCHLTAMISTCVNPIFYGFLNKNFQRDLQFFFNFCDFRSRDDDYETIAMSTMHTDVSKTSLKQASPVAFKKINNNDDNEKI

[7] = biological target: Mu-type opioid receptor (Homo sapiens) (UniProt P35372); assay: hOP3 Cerep panel
Mu-type opioid receptor (Homo sapiens), sequence (P35372 whole entry): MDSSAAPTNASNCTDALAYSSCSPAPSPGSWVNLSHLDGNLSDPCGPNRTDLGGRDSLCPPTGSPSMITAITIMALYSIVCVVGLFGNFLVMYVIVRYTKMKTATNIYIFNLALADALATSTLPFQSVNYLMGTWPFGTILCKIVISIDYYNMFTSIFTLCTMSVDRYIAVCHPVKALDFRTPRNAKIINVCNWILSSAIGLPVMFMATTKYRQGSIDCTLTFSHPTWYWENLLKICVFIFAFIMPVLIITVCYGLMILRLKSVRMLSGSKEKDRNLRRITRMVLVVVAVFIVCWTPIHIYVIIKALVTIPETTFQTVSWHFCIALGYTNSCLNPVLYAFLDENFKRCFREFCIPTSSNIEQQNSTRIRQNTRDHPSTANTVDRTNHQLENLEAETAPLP

Sodium-dependent serotonin transporter, sequence (P31645 whole entry, looked up): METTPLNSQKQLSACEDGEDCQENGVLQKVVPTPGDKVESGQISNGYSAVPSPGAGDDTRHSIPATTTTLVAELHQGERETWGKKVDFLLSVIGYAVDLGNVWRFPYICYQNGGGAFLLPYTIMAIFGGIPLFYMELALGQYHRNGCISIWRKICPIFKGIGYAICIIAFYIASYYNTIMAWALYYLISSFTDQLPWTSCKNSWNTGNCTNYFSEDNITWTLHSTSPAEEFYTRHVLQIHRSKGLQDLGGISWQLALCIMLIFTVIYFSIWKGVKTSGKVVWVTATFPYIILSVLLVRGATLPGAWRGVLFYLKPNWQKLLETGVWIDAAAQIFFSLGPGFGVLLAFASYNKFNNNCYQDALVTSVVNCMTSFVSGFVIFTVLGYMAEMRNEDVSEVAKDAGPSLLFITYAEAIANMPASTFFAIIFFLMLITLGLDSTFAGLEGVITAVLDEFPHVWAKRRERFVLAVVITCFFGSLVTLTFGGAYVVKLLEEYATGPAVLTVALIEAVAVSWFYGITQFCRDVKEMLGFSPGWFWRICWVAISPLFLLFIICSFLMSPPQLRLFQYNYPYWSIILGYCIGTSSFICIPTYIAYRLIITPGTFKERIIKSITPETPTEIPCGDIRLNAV

- effect [1]: -7.05%
- effect (Rattus norvegicus): 1%
- effect [2]: 9.45%
- effect [3]: -13.2%
- effect [4]: -2.7%
- effect [5]: 3.6%
- effect [6]: -7.35%
- effect [7]: 55.4%
Structure (SMILES): CC(=O)Nc1ncc(CN2CCC[C@H](Cc3cc(C)nc(C)c3)C2)s1 [JNJ-65355394]
